Consider three molecules from patent publication US20150309029A1, “Methods for Cancer Diagnosis, Anti-Cancer Drug Screening, and Test of Drug Effectiveness on the Basis of Phoshorylation of Ras at Thr-144 and Thr-148” (Industry-Academic Cooperation Foundation, Yonsei University, priority 2010, published 2015).

Where a SMILES comes first, the peptide text is derived from it. [ ]: non-standard residue; d: D form. Nle = CCCC[C@H](N)C(=O)O

Holding throughout (format): cell-based, human
Data set [1] relates to phosphor-mimetic form of H-Ras. The experiment in a line: Immunoblot of phospho-mimetic H-Ras level in transfected HEK293 cells after ALLN. To be noted: ALLN for 12 hours, immunoblot (FIG. 5A lower panels). The protocol: The protein expression level of the phosphorylation mimetic mutant is too low to be detected due to the severe destabilization; therefore, the proteasomal inhibitor, ALLN was treated to check for the accumulation of phosphor-mimetic form of H-Ras.
HEK293 cells were transfected with pcDNA3.1-H-Ras, pcDNA3.1-H-Ras-T144E/T148E, or pcDNA3.1-H-Ras-T144D/T148D. For indicated cases, ALLN was also administered for 12 hours. WCEs were immunoblotted with anti-Myc or -α-tubulin antibody (FIG. 5A lower panels). Treatment with ALLN increased the level of phosphor-mimetic form of H-Ras.
On the technique in general: In western blotting, separated proteins are transferred to a membrane and probed.

For data set [2], the system named is polyubiquitin-conjugated K- and N-Ras proteins. The experiment in a line: IP/immunoblot of polyubiquitinated K- and N-Ras in transfected HEK293 cells after ALLN. To be noted: ALLN treatment, IP with anti-Myc (FIG. 8A). The method, then:
To examine the possibility that K- and N-Ras proteins, similar to H-Ras, were subjected to polyubiquitination by proteasomal degradation, HEK293 cells were transfected with pcDNA3.1-H-Ras, pcDNA3.1-K-Ras, or pcDNA3.1-N-Ras with pCS4-3xFlag-Ub. Cells were treated with ALLN followed by IP with anti-Myc antibody and then immunoblotted with anti-Myc, -α-tubulin, or -Flag antibody. […] Therefore, we confirmed that H-, K-, N-Ras protein stability is regulated by polyubiquitin-dependent proteasomal degradation (FIG. 8A).

The subject of the next data set is Pan-Ras. The experiment in a line: Polyubiquitination of endogenous Pan-Ras in HEK293 cells with Gsk3β siRNA. To be noted: siRNA knockdown, ALLN 12 hours (FIG. 1A). The protocol:
Full-length human H-Ras was isolated from a HEK293 cell cDNA library by PCR and then inserted into the pcDNA-3.1-myc vector using EcoRI and HindIII restriction sites. PcDNA3.1-Gsk3β-V5 was constructed in a similar method. HEK293 cells were transfected with vector/nonspecific siRNA, Gsk3β siRNA, or pcDNA3.1-Gsk3β-V5 together with pCS4-3xFlag-Ub for 24 hours and treated with the proteasome inhibitor ALLN for 12 hours. WCEs (whole cell extracts) were then immunoprecipitated (IP) with anti-Pan-Ras antibody to detect the polyubiquitinated H-Ras. WCEs were immunoblotted with antibodies to Gsk3β, Pan-Ras, Myc-H-Ras or α-tubulin. The siRNA sequences for Gsk3β NM_002093) were 5′-[…]-3′ (SEQ ID NO: 2) and 5′-[…]-3′ (SEQ ID NO: 3). The GFP siRNA used for the negative control was 5′-[…]-3′ (SEQ ID NO: 4) (synthesized by Samchully Pharmaceutical, Korea).

Data set [3] has as its system H-Ras. The experiment in a line: H-Ras polyubiquitination in HEK293 cells with Gsk3β or Axin siRNA. The note with it: siRNA knockdown, ALLN 12 hours (FIG. 1C). The method, then: Next, HEK293 cells were transfected with vector/nonspecific siRNA, pSUPER-Axin siRNA, pCS2-MT-Axin, siGsk3β, and/or pcDNA3.1-Gsk3β-V5 together with pcDNA3.1-H-Ras and pCS4-3xFlag-Ub for 24 hours and then treated with ALLN for 12 hours. IP and immunoblotting were performed as described above.

Data set [4] has as its system H-Ras. In words: IP/immunoblot of H-Ras polyubiquitination and β-TrCP interaction in HEK293 cells with Wnt3a. The method, then:
HEK293 cells were transfected the pcDNA3.1-H-Ras, pcDNA3.1-H-Ras-T144E/T148E, or pcDNA3.1-H-Ras-T144A/T148A with vector, pcDNA3.1-Gsk3β-V5, and/or pcDNA3.1-Flag-β-TrCP, together with pCS4-3xHA-Ub, treated with ALLN for 12 hours and/or Wnt3a for 2 hours as indicated, and prepared for IP with anti-Myc antibody. IPs and WCEs were immunoblotted with anti-HA, -β-TrCP or -α-tubulin antibody.

Regarding `CCCC[C@@H](C=O)NC(=O)[C@H](CC(C)C)NC(=O)[C@H](CC(C)C)NC(C)=O` [ALLN] (Ac-Leu-Leu-[Nle]-aldehyde), in data set [1], the “level of phosphor-mimetic form of H-Ras” value was “increased”. For the same molecule, the “accumulation of polyubiquitin-conjugated K- and N-Ras proteins” value in data set [2] was “accumulation of polyubiquitin-conjugated K- and N-Ras proteins”.
“Gsk3β siRNA: siRNA for Gsk3β: 5′-CACUGAUUAUACCUCUAGU-3′ and 5′-CACUGUAACAUAGUCCGAU-3′ (chemistry not given here)”: the “levels of Pan-Ras polyubiquitination” value with Pan-Ras was “decreased”. Moreover, the H-Ras polyubiquitination result in the data set with H-Ras [3] is “decreased”.

B1: Wnt3a: recombinant Wnt3a (protein, UniProt P56704 19-352, looked up)
Protein Wnt-3a: SYPIWWSLAVGPQYSSLGSQPILCASIPGLVPKQLRFCRNYVEIMPSVAEGIKIGIQECQHQFRGRRWNCTTVHDSLAIFGPVLDKATRESAFVHAIASAGVAFAVTRSCAEGTAAICGCSSRHQGSPGKGWKWGGCSEDIEFGGMVSREFADARENRPDARSAMNRHNNEAGRQAIASHMHLKCKCHGLSGSCEVKTCWWSQPDFRAIGDFLKDKYDSASEMVVEKHRESRGWVETLRPRYTYFKVPTERDLVYYEASPNFCEPNPETGSFGTRDRTCNVSSHGIDGCDLLCCGRGHNARAERRREKCRCVFHWCCYVSCQECTRVYDVHTCK
In the case of B1, in the data set on H-Ras [4] (Wnt3a, T144A/T148A H-Ras), the “polyubiquitination of phospho-deficient form of H-Ras” value is given as “not affected”. The “polyubiquitination and interaction with β-TrCP of Wt H-Ras increased by Gsk3β transfection” value in the data set with H-Ras [4] (recombinant Wnt3a for 2 hours, Wt H-Ras) was “blocked”.
